Source: article PMC9623576, “Semisynthesis and Evaluation of Anti-Inflammatory Activity of the Cassane-Type Diterpenoid Taepeenin F and of Some Synthetic Intermediates” (Journal of Natural Products, 2022)

Test system: B16-F10 murine melanoma cells
Experiment: MTT cancer cell proliferation assay, B16-F10
Format: cell-based
Conditions: Mus musculus, B16-F10, 72 h, MTT; for IC50: read-out: IC50; for IC20: read-out: IC20
Description: The five newly synthesized diterpenoids were evaluated for their cytotoxic effects against three selected tumor cell lines, B16-F10 murine melanoma cells, HT29 human colon adenocarcinoma cells, and HepG2 human hepatocarcinoma cells at increasing concentrations (0–100 μg/mL). After 72 h of treatment, cell viability was determined by an MTT assay, where the tetrazolium dye was transformed into formazan in the mitochondria of viable cells, its absorbance measured at 570 nm and expressed as a percentage with respect to untreated control cells (S3 Figure.). The concentrations required for 20, 50, and for 80% growth inhibition (IC20, IC50, and IC80) were also determined for each compound (Table 2).
A stock solution was frozen and stored at […]. Before the experiments, this solution was diluted in cell-culture medium to the adequate concentrations for each experiment. […] For nitrite assay, subcytotoxic concentrations (3/4IC50, 1/2IC50, and 1/4IC50), were used to ensure that the NO inhibitory potential was not due to a possible cytotoxic effect. The concentrations of 3/4IC50, 1/2IC50, and 1/4IC50 were used for the cell-cycle analysis. All experiments were measured and compared with control (untreated cells after 24, 48, or 72 h of treatment.)
Human colorectal adenocarcinoma cell line HT29 (ECACC no. 9172201; ATCC no. HTB-38), human hepatocarcinome cell line HepG2 (ECACC no. 85011430), mouse melanoma cells B16-F10 (ATCC no. CRL-6475), and murine monocyte/macrophage-like RAW 264.7 cell line (ATCC no, TIB-71) were cultured in DMEM (Dulbecco’s modified Eagle’s medium) supplemented with 2 mM glutamine, 10% heat-inactivated FCS (fetal calf serum), 10 000 units/mL of penicillin and 10 mg/mL of streptomycin, (for all cancer cell lines), 50 μg/mL of gentamicin (only for RAW 264.7 cell line), and incubated at 37 °C, in an atmosphere of 5% CO2 and 95% humidity. The culture media were changed every 48 h, and the confluent cultures were separated with a trypsin solution (0.25% EDTA). In all experiments, monolayer cells were grown to 80–90% confluence, in sterile cell culture flasks. All cell lines used were purchased from the cell bank of the University of Granada, Spain.
The cytotoxicity assay was performed by the MTT (3-(4,5-dimethylthiazol-2-yl)-2,5-diphenyltetrazolium bromide) method.[21] To quantify the cytotoxicity of compounds, the fresh and suspended cells were seeded in 96-well plates to a volume of 100 μL at 6.0 × 10^3 cells/mL for HT29 and RAW 264.7 cell lines, at 5.0 × 10^3 cells/mL for B16-F10 cells and 15.0 × 10^3 for Hep G2. Then, cells were incubated to adhere over 24 h at 37 °C with 5% CO2. All tested compounds were prepared in fresh growth medium. After 24 h, an additional 100 μL of medium with the corresponding concentrations of products (only medium in the control wells) was added to the corresponding wells, at various final concentrations (0–100 μg/mL). Finally, after 72 h of incubation at 37 °C with 5% CO2, the medium with the compounds were removed and 100 μL of MTT solution (0.5 mg/mL) in 50% of PBS 50% of medium was added to each well. After 1.5 h of incubation, formazan was resuspended in 100 μL of DMSO, and each concentration was tested in triplicate. Relative cell viability, with respect to untreated control cells, was measured by absorbance at 570 nm on an ELISA plate reader (Tecan Sunrise MR20-301, TECAN, Austria).
Cytotoxicity experimental data were fitted to a sigmoidal function (y = ymax/(x/a)^−b) by nonlinear regression. […] These analyses were performed using SigmaPlot 12.5 software. Similar analyses were performed to obtain the IC50 of NO production. All data shown here are representative of at least two independent experiments performed in triplicate. All quantitative data were summarized as the mean ± standard deviation (SD).

Row | Compound | IC50 [µM] | IC80 [µM] | IC20 [µM]
1 | COC(=O)[C@]1(C)CCC[C@@]2(C)[C@H]1CC=C1C(C)=C(C(C)C)C(=O)C[C@@H]12 [Compound 16, (1R,4aR,10aR)-Methyl 7-isopropyl-1,4a,8-trimethyl-6-oxo-1,2,3,4,4a,4b,5,6,10,10a-decahydrophenanthrene-1-carboxylate] | 22.2 ± 1.16 | 35.8 ± 3.35 | 14.2 ± 0.19
2 | COC(=O)[C@]1(C)CCC[C@]2(C)c3cc(O)c(C=O)c(C)c3CC[C@@H]12 [Compound 21, (1R,4aS,10aR)-Methyl 7-formyl-6-hydroxy-1,4a,8-trimethyl-1,2,3,4,4a,9,10,10a-octahydrophenanthrene-1-carboxylate] | 7.72 ± 3.92 | 20.1 ± 7.72 | 3.18 ± 2.3
